Laboratory results published in patent US20230312582A1, “Salts Of Nitrogen-Containing Heterocyclic Compound, And Solid Forms Of Salts, Pharmaceutical Composition And Use Thereof” (Wuhan Humanwell Innovative Drug Research And Development …, priority 2020, published 2023).
Converted amounts (≈) assume the structure as drawn. Structures can show the parent of a compound that is named as a salt. Where two headings read alike, the source gives them in different places.

Experiments:
[1] = Stability assay of human liver microsome; format: in vitro ADME; conditions: human liver microsomes, NADPH, 37° C.
Protocol: The stability of human liver microsome was detected by in vitro co-incubation of compounds with human liver microsomes. Test compounds were first prepared as 10 mM stock solutions in DMSO solvent, followed by dilution of the compounds to 0.5 mM using acetonitrile. […] The deep-well plate was taken, […] was added to each well, then 15 μL of pre-warmed 6 mM NADPH solution was added to the plate to start the reaction, and the plate was incubated at 37° C. […] The supernatant was taken after centrifugation, and added with purified water at a ratio of 1:1 for LC-MS/MS detection to obtain the ratio of peak area of compound to peak area of internal standard at each time point. […] T1/2 was calculated using Excel.

[2] = Thermodynamic solubility assay; format: physicochemical; conditions: thermodynamic from solid
Protocol: The compounds were weighed out accurately, added to the prepared phosphate buffered saline at pH 7.4, FeSSIF solution at pH 5.8 and FaSSGF solution at pH 1.6 to prepare a solution at a concentration of 4 mg/mL, and the prepared solution was shaken at 1000 rpm for 1 h, and then incubated overnight at room temperature. The incubated solution was centrifuged at 12000 rpm for 10 min to remove undissolved particles, and the supernatant was transferred to a new centrifuge tube. After the supernatant was diluted properly, the supernatant was added with an acetonitrile solution containing an internal standard, and quantified by adopting a standard curve prepared by the same matrix.

[3] = In vivo pharmacokinetic assay in mice; conditions: male, ICR, mouse, in vivo
Protocol: (§1) In vivo pharmacokinetic assay in rats was performed, wherein the used rats were 6 male SD rats weighing 180-240 g and fasted overnight. […] Blood samples were centrifuged at 8000 rpm for 6 min at 4° C., and plasma was collected and stored at −20° C. The plasma at each time point was taken and added with 3-5 times of acetonitrile solution containing the internal standard for mixing, and the mixed solution was subjected to vortex mixing for 1 min, and centrifuging at 4° C. for 10 min at 13000 rpm. The supernatant was taken and added with 3 times of water for mixing. A proper amount of the mixed solution was taken for LC-MS/MS analysis. The major pharmacokinetic parameters were analyzed using WinNonlin 7.0 software and a non-compartmental model.
In vivo pharmacokinetic assay in mice was performed, wherein the used mice were 18 male ICR mice weighing 20-25 g and fasted overnight. […] The rest of the procedure was performed in the same manner as in the pharmacokinetic assay in rats.

[4] = In vivo pharmacokinetic assay in rats; conditions: male, SD, rat, in vivo
Protocol: as §1

[5] = Pharmacokinetic assay (crystal form) in mice; format: in vivo; conditions: male, ICR, mouse, plasma, oral intragastric administration 10 mg/kg
Protocol: as §1, with “in mice” for “in rats”, “used mice” for “used rats”, “were 9” for “were 6”, “male ICR mice” for “male SD rats”, “weighing 20-25” for “weighing 180-240”, “overnight. 9 mice were taken and orally intragastrically administered with 10 mg/kg of the compound.” for “overnight.”

[6] = Hygroscopicity by dynamic vapor sorption (DVS); format: physicochemical; conditions: for After DVS test Whether the crystal form is changed: 0% RH to 95% RH to 0% RH; for After DVS test Whether the crystal form is changed / Hygroscopicity / Vapor sorption (25° C./80% RH): 25° C.; for Hygroscopicity / Vapor sorption (25° C./80% RH): DVS; for Risk evaluation: hygroscopicity evaluation
Protocol: Dynamic vapor sorption (DVS) curves are acquired on a DVS Intrinsic in SMS (Surface Measurement System). The relative humidity at 25° C. is corrected with the deliquescence points of LiCl, Mg(NO3)2 and KCl.
Hygroscopicity of the crystal form A of hydrochloride, the crystal form A of fumarate, the crystal form A of benzenesulfonate and the free base crystal form A prepared repeatedly was evaluated using a dynamic vapor sorption (DVS) instrument. Starting at 0% relative humidity (0% RH), the test acquired the percentage change of mass of the sample when humidity changed (0% RH to 95% RH to 0% RH) at a constant temperature of 25° C.

[7] = Polarizing microscope (PLM) image, particle size; format: physicochemical; conditions: room temperature
Description: The polarizing microscope data are acquired by an Axio Lab. A1 upright microscope at room temperature.

[8] = Dynamic solubility in water and three biological vehicles; format: physicochemical; conditions: for Crystal form change: XRPD of solid; for pH: filtrate
Protocol: The dynamic solubility of the crystal form A of hydrochloride, the crystal form A of fumarate, the crystal form A of benzenesulfonate and the free base crystal form A prepared repeatedly was evaluated in water and three biological vehicles. […] After centrifugation of the samples at each time point (0.45 μm PTFE filter head), the filtrate was determined for HPLC concentration and pH, and the centrifuged solid samples were tested for XRPD.

Solid stability, 1 week = format: physicochemical; conditions: for Purity (area %): HPLC; for Crystal form change: XRPD
Protocol: The crystal form A of hydrochloride, the crystal form A of fumarate, the crystal form A of benzenesulfonate and the free base crystal form A prepared repeatedly were placed at 25° C./60% RH and 40° C./75% RH for 1 week, and then the physical and chemical stability of the samples were tested by XRPD and HPLC. […] No significant purity decrease or crystal form transformation occurred in any of the other samples after being placed under 2 conditions for 1 week.

[9] = intravenous injection 1 mg/kg, read-out: Vz
[10] = oral intragastric administration 10 mg/kg

O=C(COCCc1cnn[nH]1)N1Cc2cnc(NC3Cc4ccccc4C3)nc2C1 [Control compound, reference compound]
Remaining percentage of compound after 30 min of incubation (%) [1]: 41.2%
half-life at 1.5 μM [1]: 24.1 min
solubility ([2]; aqueous buffer, PBS, pH 7.4, room temperature overnight, read-out: Solubility PBS (pH 7.4)): 6.3 mg/mL (≈ 15.5 mM)
solubility ([2]; fassgf or other biorelevant, FaSSGF, pH 1.6, room temperature overnight, read-out: Solubility FaSSGF (pH 1.6)): 66.5 mg/mL (≈ 164 mM)
solubility ([2]; FeSSIF, pH 5.8, room temperature overnight, read-out: Solubility FeSSIF (pH 5.8)): 18.3 mg/mL (≈ 45.1 mM)
AUC(0-t) ([3]; intravenous injection 1 mg/kg): 0.29 µg·h/mL
clearance ([3]; intravenous injection 1 mg/kg): 3.45 L/h/kg
half-life ([3]; intravenous injection 1 mg/kg): 20.4 min
Vd [3, 9]: 1.67 L/kg
AUC(0-t) [3, 10]: 2.9 µg·h/mL
Cmax [3, 10]: 2.04 µg/mL
Tmax [3, 10]: 15 min
half-life [3, 10]: 49.8 min
AUC(0-t) ([4]; intravenous injection 1 mg/kg): 0.58 µg·h/mL
clearance ([4]; intravenous injection 1 mg/kg): 1.76 L/h/kg
half-life ([4]; intravenous injection 1 mg/kg): 27 min
Vd [4, 9]: 1.12 L/kg
AUC(0-t) [4, 10]: 4.87 µg·h/mL
Cmax [4, 10]: 2.59 µg/mL
Tmax [4, 10]: 25.2 min
half-life [4, 10]: 78.6 min
AUC(0-t) [5]: 2.9 µg·h/mL
Cmax [5]: 2.04 µg/mL
Tmax [5]: 15 min
half-life [5]: 49.8 min

C[C@H](Cc1cnn[nH]1)OCC(=O)N1Cc2cnc(NC3Cc4ccccc4C3)nc2C1 [Crystal form A of fumarate]
After DVS test Whether the crystal form is changed [6]: No
Hygroscopicity [6]: Slightly
Vapor sorption (25° C./80% RH) [6]: 0.60%
DVS curve vapor sorption ([6]; at 0% RH to 80% RH): less than 0.60%
Risk evaluation [6]: None
particle size [7]: less than 50 μm
Crystal form change ([8]; H2O, 1 h): No
Crystal form change ([8]; H2O, 4 h): No
Crystal form change ([8]; H2O, 24 h): No
Crystal form change ([8]; SGF, 1 h): No
Crystal form change ([8]; SGF, 4 h): No
Crystal form change ([8]; SGF, 24 h): No
pH ([8]; FaSSIF, 1 h): 4.9
pH ([8]; FaSSIF, 4 h): 4.4
pH ([8]; FaSSIF, 24 h): 4.2
pH ([8]; FeSSIF, 1 h): 4.8
pH ([8]; FeSSIF, 4 h): 4.9
pH ([8]; FeSSIF, 24 h): 4.8
pH ([8]; H2O, 1 h): 3.6
pH ([8]; H2O, 4 h): 3.7
pH ([8]; H2O, 24 h): 3.6
pH ([8]; SGF, 1 h): 1.9
pH ([8]; SGF, 4 h): 1.9
pH ([8]; SGF, 24 h): 1.9
Purity/initial purity (%) (Solid stability, 1 week; 25° C./60% RH): 100.1%
Purity (area %) (Solid stability, 1 week; 25° C./60% RH): 99.28 area %
Crystal form change (Solid stability, 1 week; 25° C./60% RH): No
Purity/initial purity (%) (Solid stability, 1 week; 40° C./75% RH): 100.1%
Purity (area %) (Solid stability, 1 week; 40° C./75% RH): 99.33 area %
Crystal form change (Solid stability, 1 week; 40° C./75% RH): No

C[C@H](Cc1cnn[nH]1)OCC(=O)N1Cc2cnc(NC3Cc4ccccc4C3)nc2C1 [Free base crystal form A]
After DVS test Whether the crystal form is changed [6]: No
Hygroscopicity [6]: Slightly
Vapor sorption (25° C./80% RH) [6]: 1.03%
Risk evaluation [6]: None
particle size [7]: less than 50 μm
Crystal form change ([8]; FaSSIF, 1 h): No
Crystal form change ([8]; FaSSIF, 4 h): No
Crystal form change ([8]; FaSSIF, 24 h): No
Crystal form change ([8]; FeSSIF, 1 h): No
Crystal form change ([8]; FeSSIF, 4 h): No
Crystal form change ([8]; FeSSIF, 24 h): No
Crystal form change ([8]; H2O, 1 h): No
Crystal form change ([8]; H2O, 4 h): No
Crystal form change ([8]; H2O, 24 h): No
Crystal form change ([8]; SGF, 1 h): No
Crystal form change ([8]; SGF, 4 h): No
Crystal form change ([8]; SGF, 24 h): No
pH ([8]; FaSSIF, 1 h): 6.5
pH ([8]; FaSSIF, 4 h): 6.6
pH ([8]; FaSSIF, 24 h): 6.6
pH ([8]; FeSSIF, 1 h): 5.1
pH ([8]; FeSSIF, 4 h): 5.1
pH ([8]; FeSSIF, 24 h): 5.1
pH ([8]; H2O, 1 h): 8.4
pH ([8]; H2O, 4 h): 8.4
pH ([8]; H2O, 24 h): 8.6
pH ([8]; SGF, 1 h): 1.9
pH ([8]; SGF, 4 h): 1.9
pH ([8]; SGF, 24 h): 2.0
Purity/initial purity (%) (Solid stability, 1 week; 25° C./60% RH): 100.0%
Purity (area %) (Solid stability, 1 week; 25° C./60% RH): 98.67 area %
Crystal form change (Solid stability, 1 week; 25° C./60% RH): No
Purity/initial purity (%) (Solid stability, 1 week; 40° C./75% RH): 100.0%
Purity (area %) (Solid stability, 1 week; 40° C./75% RH): 98.60 area %
Crystal form change (Solid stability, 1 week; 40° C./75% RH): No
